Assay: Aerodynamic particle size distribution by Andersen Cascade Impactor (ACI)
Assay type: physicochemical
Conditions: flow rate 28.3 L/min, Samples I-V
Experimental: An Andersen Cascade Impactor (ACI) was used to determine the particle size distribution of Samples I-V. The test was conducted at a flow rate of 28.3 L/min. Deposition of the active substance on each ACI plate was determined by high performance liquid chromatography. The particle size was expressed in terms of mass median aerodynamic diameter (MMAD) and Geometric Standard Deviation (GSD).

GSD: 1.7 | MMAD: 4.4 μm
SMILES: CC(C)(C)NC[C@H](O)c1ccc(O)c(CO)c1.O=C(O)C(O)C(O)C(=O)O [Levalbuterol Tartrate, 4-[(1R)-2-(tert-butylamino)-1-hydroxyethyl]-2-(hydroxymethyl)phenol; (2R,3R)-2,3-dihydroxybutanedioic acid]

From patent publication US20210290568A1, “INHALABLE FORMULATION OF A SOLUTION CONTAINING LEVALBUTEROL TARTRATE” (priority 2020, published 2021)
